Assay [1] addresses PI3Kα (Homo sapiens, UniProt P42336). As to the kind of experiment: PI3K Inhibition Assay (33P-ATP, PI(4,5)P2 substrate), PI3Kα. The format is biochemical. To be noted: 2 nM final enzyme, 3 μM ATP, 30 μM PI(4,5)P2, 30 min at 25° C.; competitive tight binding Ki fit. As for the experimental part: (§1) Using a Biomek FX from Beckman Coulter, 1.5 μL of each of ten 2.5-fold serial dilutions of a compound of the invention in 100% DMSO was added to an individual well (hereafter, “test well”) in a 96 well polystyrene plate [Corning, Costar Item No. 3697]. One test well also contained 1.5 μL of DMSO with no compound. […] Using a Titertek Multidrop, 50 μL of Reaction Mix [100 mM HEPES pH 7.5, 50 mM NaCl, 10 mM DTT, 0.2 mg/mL BSA, 60 μM phosphatidylinositol(4,5)-bisphosphate diC16 (PI(4,5)P2; Avanti Polar Lipids, Cat. No. 840046P) and PI3K isoform of interest (see Table 3 for isoform concentrations)] was added to each well. To initiate the reaction, 50 μL of ATP Mix [20 mM MgCl2, 6 μM ATP (100 μCi/μmole ^33P-ATP)] was added each well, followed by incubating the wells for 30 min. at 25° C. Final concentrations in each well were 50 mM HEPES 7.5, 10 mM MgCl2, 25 mM NaCl, 5 mM DTT, 0.1 mg/mL BSA, 30 μM PI(4,5)P2, 3 μM ATP, and the PI3K isoform of interest (see Table 3). Final compound concentrations in each well ranged from 10 μM to 1 nM.
(§2) After incubation, the reactions in each well were quenched by addition of 50 μL of stop solution [30% TCA/Water, 10 mM ATP]. […] 50 μL of scintillation fluid was added to each well and the plate read on a Perkin-Elmer TopCount™ NXT liquid scintillation counter to obtain ^33P-counts representing inhibition values. […]

The target in assay [2] is PI3Kγ (Homo sapiens, UniProt P48736). As to the kind of experiment: PI3K Inhibition Assay (33P-ATP, PI(4,5)P2 substrate), PI3Kγ. Type of assay: biochemical. The settings on record: 2 nM final enzyme, 3 μM ATP, 30 μM PI(4,5)P2, 30 min at 25° C.; competitive tight binding Ki fit. How it is done: as §1, §2

This is an account of results in patent publication US8268999B2, “Tri-cyclic pyrazolopyridine kinase inhibitors” (Vertex Pharmaceuticals Incorporated, priority 2009, dated 2012).

Structures are written as SMILES. Values joined by “and” are separate entries in the source; they are usually repeats but may differ in a detail not shown here. Identical values can stand only once.

PI3Kα, sequence (P42336 whole entry, species assumed, canonical isoform): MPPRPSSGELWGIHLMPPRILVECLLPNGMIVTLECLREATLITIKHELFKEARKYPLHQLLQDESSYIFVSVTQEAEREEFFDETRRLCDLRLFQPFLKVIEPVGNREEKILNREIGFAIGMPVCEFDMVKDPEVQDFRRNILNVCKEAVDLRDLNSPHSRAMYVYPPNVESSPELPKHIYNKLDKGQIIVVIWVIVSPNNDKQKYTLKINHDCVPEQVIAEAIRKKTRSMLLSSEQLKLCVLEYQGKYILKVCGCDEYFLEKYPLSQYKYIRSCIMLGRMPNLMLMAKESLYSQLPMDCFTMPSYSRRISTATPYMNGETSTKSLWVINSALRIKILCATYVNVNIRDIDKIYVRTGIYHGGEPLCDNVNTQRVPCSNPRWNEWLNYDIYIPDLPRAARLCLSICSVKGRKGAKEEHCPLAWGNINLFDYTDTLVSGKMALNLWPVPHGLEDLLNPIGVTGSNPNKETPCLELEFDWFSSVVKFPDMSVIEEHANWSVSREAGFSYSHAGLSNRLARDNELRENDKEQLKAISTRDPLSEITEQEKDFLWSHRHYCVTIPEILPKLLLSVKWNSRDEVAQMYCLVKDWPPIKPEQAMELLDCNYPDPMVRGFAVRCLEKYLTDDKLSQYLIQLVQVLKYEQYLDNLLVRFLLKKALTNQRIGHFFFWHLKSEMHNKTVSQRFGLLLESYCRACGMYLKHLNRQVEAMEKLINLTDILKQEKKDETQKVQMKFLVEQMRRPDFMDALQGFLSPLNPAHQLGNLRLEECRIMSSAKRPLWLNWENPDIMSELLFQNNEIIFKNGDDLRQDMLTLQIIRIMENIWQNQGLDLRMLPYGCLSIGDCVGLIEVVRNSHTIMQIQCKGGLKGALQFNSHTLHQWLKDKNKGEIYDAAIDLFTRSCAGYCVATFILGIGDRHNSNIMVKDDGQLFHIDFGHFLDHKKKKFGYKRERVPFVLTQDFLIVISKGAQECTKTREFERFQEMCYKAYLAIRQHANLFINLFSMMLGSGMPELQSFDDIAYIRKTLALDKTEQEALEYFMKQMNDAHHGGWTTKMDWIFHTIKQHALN
PI3Kα, sequence (P27986 whole entry partner, species assumed, canonical isoform): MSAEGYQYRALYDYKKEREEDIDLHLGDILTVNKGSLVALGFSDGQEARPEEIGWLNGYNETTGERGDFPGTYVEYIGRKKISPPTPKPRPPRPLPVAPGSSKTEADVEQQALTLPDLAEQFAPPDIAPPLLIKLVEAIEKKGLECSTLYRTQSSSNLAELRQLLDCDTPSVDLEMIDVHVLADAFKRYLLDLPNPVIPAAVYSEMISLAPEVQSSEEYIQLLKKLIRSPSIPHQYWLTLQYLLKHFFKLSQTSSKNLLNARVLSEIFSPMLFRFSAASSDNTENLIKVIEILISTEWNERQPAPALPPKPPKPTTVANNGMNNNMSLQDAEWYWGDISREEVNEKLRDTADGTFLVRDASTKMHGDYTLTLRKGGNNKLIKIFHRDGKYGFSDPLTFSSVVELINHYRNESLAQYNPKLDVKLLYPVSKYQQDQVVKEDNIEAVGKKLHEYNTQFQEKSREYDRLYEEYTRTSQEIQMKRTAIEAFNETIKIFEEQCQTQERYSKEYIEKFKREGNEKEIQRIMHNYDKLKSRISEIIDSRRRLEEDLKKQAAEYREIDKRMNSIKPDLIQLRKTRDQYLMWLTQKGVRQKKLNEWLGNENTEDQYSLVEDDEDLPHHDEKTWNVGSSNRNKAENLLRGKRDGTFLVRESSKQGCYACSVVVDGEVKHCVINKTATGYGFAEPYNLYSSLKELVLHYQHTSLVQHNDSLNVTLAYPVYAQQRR
PI3Kγ, sequence (P48736 whole entry, species assumed): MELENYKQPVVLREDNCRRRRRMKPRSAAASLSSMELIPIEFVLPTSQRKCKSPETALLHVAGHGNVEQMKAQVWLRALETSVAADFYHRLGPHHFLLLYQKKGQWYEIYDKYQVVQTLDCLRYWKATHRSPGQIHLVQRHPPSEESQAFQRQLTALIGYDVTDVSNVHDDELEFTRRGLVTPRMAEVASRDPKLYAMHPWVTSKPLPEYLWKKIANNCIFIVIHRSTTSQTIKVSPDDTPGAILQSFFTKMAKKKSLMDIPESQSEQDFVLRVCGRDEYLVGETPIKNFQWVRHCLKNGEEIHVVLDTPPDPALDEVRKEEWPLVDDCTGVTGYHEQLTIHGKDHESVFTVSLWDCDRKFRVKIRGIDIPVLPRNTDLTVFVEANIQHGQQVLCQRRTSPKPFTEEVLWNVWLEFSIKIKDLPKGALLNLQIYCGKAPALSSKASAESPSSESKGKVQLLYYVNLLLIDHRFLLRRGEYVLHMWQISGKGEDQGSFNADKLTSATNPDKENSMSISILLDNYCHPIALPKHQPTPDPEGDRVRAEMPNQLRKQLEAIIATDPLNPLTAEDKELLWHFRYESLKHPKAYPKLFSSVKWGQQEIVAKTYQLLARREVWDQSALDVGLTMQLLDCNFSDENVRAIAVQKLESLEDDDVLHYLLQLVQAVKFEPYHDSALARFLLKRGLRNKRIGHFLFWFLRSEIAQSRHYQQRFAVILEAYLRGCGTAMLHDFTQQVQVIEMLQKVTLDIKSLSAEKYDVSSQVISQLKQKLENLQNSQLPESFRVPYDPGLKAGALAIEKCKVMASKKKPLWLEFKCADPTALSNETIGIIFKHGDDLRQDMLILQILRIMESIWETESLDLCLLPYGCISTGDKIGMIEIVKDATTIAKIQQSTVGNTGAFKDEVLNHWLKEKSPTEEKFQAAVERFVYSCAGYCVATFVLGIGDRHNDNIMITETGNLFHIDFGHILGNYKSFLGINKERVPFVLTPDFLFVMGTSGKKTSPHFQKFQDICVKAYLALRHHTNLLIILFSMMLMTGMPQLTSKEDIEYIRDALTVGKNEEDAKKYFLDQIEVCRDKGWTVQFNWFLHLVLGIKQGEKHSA

Turning to `COc1cc(-c2ccc3nc(Nc4cnccn4)sc3n2)cnc1OC` [Compound 37], the Ki – broadly, a measure of affinity in units of concentration, obtained from inhibition or displacement – in assay [1] was 2 nM and < 100 nM.
For `CCN(CC)C(=O)c1cccc(Nc2nc3ccc(-c4cncc(OC)c4)cc3s2)n1` [Compound 110], the Ki in assay [2] was 3 nM and < 100 nM.
